{"source": "patent US20040091555A1", "about": "(priority 2003, published 2004)", "origin": "cited, not measured here", "system": "hepatocellular carcinoma", "details": "phase II clinical trials, patients with hepatocellular carcinoma"}
{"smiles": "CC(=O)O[C@H]1C(=O)[C@@]2(C)[C@H]([C@H](OC(=O)c3ccccc3)[C@]3(O)C[C@H](OC(=O)[C@H](O)[C@@H](NC(=O)c4ccccc4)c4ccccc4)C(C)=C1C3(C)C)[C@]1(OC(C)=O)CO[C@@H]1C[C@@H]2O", "note": "[paclitaxel]", "values": [{"measurement": "efficacy on hepatocellular carcinoma", "result": "no significant efficacy on hepatocellular carcinoma"}]}
